Source: article PMC11956013, “Structure–Activity Relationships and Evaluation of 2-(Heteroaryl-cycloalkyl)-1H-indoles as Tauopathy Positron Emission Tomography Radiotracers” (Journal of Medicinal Chemistry, 2025)
Where “and” joins values, the source holds several entries; their conditions need not be identical. Equal values may be shown once. Read-outs that look alike come from different tables or passages of the source. Values belong to the compound of their own block, whether it stands above or below them.

Assays:
D2L (h) = D2L (h) (Homo sapiens, UniProt P14416); conditions: Specific binding; reference compound
CYP1A2 = CYP1A2 (Homo sapiens, UniProt P05177); conditions: In Vitro Metabolism; HLM, Tacrine substrate; reference compound
[1] = biological target: Non-Selective Rat Glycine Ion Channel (Rattus norvegicus, UniProt P07727); experiment: Non-Selective Rat Glycine Ion Channel Strychnine Mass Spectrometry Binding Assay, Cerep
[2] = biological target: Ca2+ channel (L, dihydropyridine site) (Rattus norvegicus, UniProt P22002); experiment: Eurofins panel: Ca2+ channel (L, dihydropyridine site) (antagonist radioligand); conditions: reference compound
Ca2+ channel (L, dihydropyridine site), sequence (P22002 whole entry): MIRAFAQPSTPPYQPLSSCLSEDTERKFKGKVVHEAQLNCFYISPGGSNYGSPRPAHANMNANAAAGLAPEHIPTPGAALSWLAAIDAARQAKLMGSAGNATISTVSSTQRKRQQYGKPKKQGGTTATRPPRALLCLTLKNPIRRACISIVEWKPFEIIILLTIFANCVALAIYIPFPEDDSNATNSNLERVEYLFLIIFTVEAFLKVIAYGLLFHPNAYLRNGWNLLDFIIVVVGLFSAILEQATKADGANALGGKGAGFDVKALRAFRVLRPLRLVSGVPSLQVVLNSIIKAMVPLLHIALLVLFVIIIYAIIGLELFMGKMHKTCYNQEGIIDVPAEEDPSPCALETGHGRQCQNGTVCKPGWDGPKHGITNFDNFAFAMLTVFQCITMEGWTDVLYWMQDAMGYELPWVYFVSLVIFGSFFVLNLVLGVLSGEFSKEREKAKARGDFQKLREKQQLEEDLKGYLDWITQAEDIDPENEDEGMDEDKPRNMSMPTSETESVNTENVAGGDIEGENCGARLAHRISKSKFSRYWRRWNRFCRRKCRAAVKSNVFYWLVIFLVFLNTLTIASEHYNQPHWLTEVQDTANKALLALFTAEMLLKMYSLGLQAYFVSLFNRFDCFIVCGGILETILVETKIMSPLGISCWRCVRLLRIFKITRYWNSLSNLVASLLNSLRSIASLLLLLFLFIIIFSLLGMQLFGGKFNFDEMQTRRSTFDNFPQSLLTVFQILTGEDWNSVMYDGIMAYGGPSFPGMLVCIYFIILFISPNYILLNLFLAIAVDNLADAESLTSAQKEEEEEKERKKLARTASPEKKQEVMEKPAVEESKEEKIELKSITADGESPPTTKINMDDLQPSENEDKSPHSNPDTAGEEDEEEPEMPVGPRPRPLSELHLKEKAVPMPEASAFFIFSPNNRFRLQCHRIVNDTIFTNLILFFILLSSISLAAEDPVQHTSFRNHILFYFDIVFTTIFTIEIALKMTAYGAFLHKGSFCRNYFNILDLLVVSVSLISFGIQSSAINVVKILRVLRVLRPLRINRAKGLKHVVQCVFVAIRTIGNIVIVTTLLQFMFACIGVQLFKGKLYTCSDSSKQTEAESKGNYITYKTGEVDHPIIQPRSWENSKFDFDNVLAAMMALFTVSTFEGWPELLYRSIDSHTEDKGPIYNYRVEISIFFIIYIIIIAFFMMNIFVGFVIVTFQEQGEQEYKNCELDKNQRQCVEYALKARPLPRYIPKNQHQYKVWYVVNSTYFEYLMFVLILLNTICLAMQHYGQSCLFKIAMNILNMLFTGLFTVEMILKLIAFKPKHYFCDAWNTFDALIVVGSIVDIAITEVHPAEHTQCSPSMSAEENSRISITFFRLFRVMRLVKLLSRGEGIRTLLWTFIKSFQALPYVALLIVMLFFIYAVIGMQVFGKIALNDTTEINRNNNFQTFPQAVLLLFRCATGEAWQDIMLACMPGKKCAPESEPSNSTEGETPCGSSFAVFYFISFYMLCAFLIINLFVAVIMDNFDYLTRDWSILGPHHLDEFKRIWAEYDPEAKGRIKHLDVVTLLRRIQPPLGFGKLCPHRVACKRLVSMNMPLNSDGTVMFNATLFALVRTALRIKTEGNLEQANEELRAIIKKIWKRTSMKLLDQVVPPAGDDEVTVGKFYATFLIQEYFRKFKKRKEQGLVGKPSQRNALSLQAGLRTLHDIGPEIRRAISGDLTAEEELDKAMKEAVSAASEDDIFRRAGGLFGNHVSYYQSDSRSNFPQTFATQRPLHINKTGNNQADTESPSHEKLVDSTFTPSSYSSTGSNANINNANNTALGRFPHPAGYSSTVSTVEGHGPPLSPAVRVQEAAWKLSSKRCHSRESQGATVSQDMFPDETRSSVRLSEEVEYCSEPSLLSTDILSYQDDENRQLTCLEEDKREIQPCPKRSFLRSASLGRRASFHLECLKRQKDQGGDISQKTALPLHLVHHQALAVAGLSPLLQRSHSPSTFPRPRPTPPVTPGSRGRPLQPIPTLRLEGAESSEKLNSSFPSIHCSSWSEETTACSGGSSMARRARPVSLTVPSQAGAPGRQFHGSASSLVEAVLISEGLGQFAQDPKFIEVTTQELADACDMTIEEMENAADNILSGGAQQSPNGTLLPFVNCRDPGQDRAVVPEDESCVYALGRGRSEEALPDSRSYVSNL

D1 (h) = D1 (h) (Homo sapiens, UniProt P21728); conditions: Specific binding; reference compound
CYP2D6 = CYP2D6 (Homo sapiens, UniProt P10635); conditions: In Vitro Metabolism; HLM, Dextromethorphan substrate; reference compound
CYP2D6, sequence (P10635 whole entry): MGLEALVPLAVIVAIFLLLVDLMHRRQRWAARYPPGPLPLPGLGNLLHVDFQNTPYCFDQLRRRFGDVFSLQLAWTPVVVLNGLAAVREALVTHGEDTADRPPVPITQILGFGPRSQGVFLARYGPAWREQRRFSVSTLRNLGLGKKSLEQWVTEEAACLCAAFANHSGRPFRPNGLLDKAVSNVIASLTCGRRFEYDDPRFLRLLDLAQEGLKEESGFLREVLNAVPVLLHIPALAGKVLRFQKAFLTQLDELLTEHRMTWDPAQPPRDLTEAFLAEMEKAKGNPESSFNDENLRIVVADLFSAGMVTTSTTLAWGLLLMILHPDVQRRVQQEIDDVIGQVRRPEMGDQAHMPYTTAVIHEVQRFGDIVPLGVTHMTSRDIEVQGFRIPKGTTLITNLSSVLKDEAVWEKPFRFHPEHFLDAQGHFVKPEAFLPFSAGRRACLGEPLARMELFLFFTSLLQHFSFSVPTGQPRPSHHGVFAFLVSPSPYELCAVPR

MT1 (ML1A) (h) = MT1 (ML1A) (h) (Homo sapiens, UniProt P48039); experiment: Eurofins panel: MT1 (ML1A) (h) (agonist radioligand); type: binding; parameters: purchased Eurofins (CNS SafetyScreen panel, contract assay) assay 1538; conditions: reference compound
CYP2C19 = CYP2C19 (Homo sapiens, UniProt P33261); conditions: In Vitro Metabolism; HLM, Omeprazole substrate; reference compound
M4 (h) = M4 (h) (Homo sapiens, UniProt P08173); experiment: M4 (h) (antagonist radioligand), Eurofins assay 96; conditions: Specific binding; reference compound
M4 (h), sequence (P08173 whole entry): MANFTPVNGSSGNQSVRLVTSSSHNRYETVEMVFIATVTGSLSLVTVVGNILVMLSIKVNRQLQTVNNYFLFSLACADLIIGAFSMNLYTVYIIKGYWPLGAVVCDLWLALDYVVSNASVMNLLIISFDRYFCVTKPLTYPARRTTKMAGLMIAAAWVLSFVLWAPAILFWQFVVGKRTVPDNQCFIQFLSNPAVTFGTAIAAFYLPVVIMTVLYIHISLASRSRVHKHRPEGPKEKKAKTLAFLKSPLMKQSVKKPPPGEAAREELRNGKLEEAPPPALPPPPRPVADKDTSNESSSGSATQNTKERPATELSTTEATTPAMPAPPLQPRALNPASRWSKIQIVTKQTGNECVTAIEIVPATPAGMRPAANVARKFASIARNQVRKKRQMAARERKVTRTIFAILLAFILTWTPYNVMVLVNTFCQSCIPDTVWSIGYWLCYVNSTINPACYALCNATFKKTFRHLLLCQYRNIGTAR

M5 (h) = biological target: T1, M5 (h) (Homo sapiens, UniProt P08912); experiment: M5 (h) (antagonist radioligand), Eurofins assay 97; conditions: Specific binding, reference compound
T1 sequence (P08912 1-532): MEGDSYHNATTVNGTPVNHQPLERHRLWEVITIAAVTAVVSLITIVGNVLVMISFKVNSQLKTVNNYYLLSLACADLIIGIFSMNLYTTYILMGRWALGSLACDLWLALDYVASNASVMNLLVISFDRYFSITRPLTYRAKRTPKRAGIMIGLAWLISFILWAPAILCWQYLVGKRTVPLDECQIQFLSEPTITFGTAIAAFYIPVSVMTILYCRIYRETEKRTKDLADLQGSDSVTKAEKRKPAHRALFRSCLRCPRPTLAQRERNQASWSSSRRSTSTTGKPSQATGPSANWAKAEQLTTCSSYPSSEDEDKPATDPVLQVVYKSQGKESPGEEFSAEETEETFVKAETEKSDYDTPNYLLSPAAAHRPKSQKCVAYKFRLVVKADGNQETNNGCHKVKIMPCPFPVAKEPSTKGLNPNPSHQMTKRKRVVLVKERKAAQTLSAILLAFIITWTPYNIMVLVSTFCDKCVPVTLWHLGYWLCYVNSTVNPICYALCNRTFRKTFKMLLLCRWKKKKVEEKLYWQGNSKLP

M3 (h) = M3 (h) (Homo sapiens, UniProt P20309); conditions: Specific binding; reference compound
[3] = biological target: COMT (catechol- O-methyl transferase); experiment: COMT (catechol- O-methyl transferase), Eurofins assay 457; type: biochemical; conditions: Enzymatic activity; reference compound; read-out: Concurrent IC50
[4] = biological target: Adenosine Guinea Pig Transporter (Cavia porcellus, UniProt H0V4R7); experiment: Adenosine Guinea Pig Transporter Mass Spectrometry Binding (Antagonist Ligand) Assay, Cerep; conditions: reference compound
Adenosine Guinea Pig Transporter, sequence (H0V4R7 1-461): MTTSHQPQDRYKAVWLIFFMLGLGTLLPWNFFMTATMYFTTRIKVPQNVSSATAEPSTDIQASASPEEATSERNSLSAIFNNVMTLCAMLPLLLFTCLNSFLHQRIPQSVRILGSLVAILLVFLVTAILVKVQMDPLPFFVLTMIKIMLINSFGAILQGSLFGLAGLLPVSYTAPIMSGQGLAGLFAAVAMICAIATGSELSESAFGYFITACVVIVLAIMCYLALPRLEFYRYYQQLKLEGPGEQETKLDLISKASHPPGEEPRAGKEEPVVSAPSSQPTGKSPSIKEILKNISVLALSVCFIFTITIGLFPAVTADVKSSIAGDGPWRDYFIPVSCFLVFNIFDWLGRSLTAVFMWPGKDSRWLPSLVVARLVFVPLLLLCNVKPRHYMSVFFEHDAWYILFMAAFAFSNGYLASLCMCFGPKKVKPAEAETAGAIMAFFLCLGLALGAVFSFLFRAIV

GR (h) = GR (h) (Homo sapiens, UniProt P04150); conditions: Specific binding; reference compound
ATPase (Na+/K+) = experiment: Eurofins panel: ATPase (Na+/K+) enzymatic activity; type: biochemical; conditions: reference compound, read-out: Concurrent IC50, Enzymatic activity
[5] = biological target: T2, aggregated tau (4R-tau) in CBD brain tissue homogenates (Homo sapiens, UniProt P10636); conditions: read-out: Ki versus [^3H]8, CBD tissue; CBD brain tissue homogenate; radioligand [^3H]8 ∼1 nM
T2 sequence (P10636 1-441 isoform P10636-8): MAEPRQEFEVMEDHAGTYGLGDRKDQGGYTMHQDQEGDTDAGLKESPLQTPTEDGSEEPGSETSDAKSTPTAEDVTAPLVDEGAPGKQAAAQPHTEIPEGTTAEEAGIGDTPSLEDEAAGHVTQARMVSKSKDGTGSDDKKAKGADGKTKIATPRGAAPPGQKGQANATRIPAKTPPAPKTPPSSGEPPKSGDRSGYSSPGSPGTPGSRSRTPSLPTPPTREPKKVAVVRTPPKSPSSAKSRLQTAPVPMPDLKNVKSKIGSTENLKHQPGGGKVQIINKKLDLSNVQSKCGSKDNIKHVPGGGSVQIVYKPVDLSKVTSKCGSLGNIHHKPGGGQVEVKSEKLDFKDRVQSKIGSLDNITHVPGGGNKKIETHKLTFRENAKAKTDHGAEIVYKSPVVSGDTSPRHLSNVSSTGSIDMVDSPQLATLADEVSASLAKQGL

[6] = biological target: T2, aggregated tau (4R-tau) in CBD brain tissue homogenates; conditions: read-out: Ki versus [^3H]7, CBD tissue; CBD brain tissue homogenate; radioligand [^3H]7 ∼1 nM
[7] = biological target: T3, aggregated tau (4R-tau) in PSP brain tissue homogenates (Homo sapiens, UniProt P10636); experiment: In vitro competition (Ki) assay versus [^3H]75, PSP brain tissue homogenate; type: binding; conditions: PSP brain tissue homogenate; radioligand [^3H]75; n = 3, mean ± SD
T3 construct: from tissue
T3 sequence (P10636 1-441 isoform P10636-8): as above

[8] = biological target: T4, aggregated tau (mixed 3R/4R-tau) in AD brain tissue homogenates (Homo sapiens, UniProt P10636); parameters: method as in earlier work; conditions: AD brain tissue homogenate; radioligand [^3H]3; read-out: Ki versus [^3H]3, AD tissue; cited from earlier work
Target sequence in this assay (P10636 623-695 limits assumed): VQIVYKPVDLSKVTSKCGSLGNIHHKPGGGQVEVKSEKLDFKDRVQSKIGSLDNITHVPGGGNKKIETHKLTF

[9] = biological target: T4, aggregated tau (mixed 3R/4R-tau) in AD brain tissue homogenates; experiment: In vitro competition (Ki) assay versus [^3H]7, AD brain tissue homogenate; type: binding; conditions: radioligand [^3H]7 ∼1 nM
Target sequence in this assay (P10636 623-695 limits assumed): as above

[10] = biological target: T4, aggregated tau (mixed 3R/4R-tau) in AD brain tissue homogenates; experiment: In vitro competition (Ki) assay versus [^3H]8, AD brain tissue homogenate; type: binding; conditions: radioligand [^3H]8 ∼1 nM
Target sequence in this assay (P10636 623-708 limits assumed): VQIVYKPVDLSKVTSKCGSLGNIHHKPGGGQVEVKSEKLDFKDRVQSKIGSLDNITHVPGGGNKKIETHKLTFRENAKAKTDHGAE

[11] = biological target: T3, aggregated tau (4R-tau) in PSP brain tissue homogenates; experiment: In vitro competition (Ki) assay versus [^3H]8, PSP brain tissue homogenate; type: binding; conditions: radioligand [^3H]8 ∼1 nM
[12] = biological target: T5, aggregated tau (3R-tau) in PiD brain tissue homogenates (Homo sapiens, UniProt P10636); experiment: In vitro competition (Ki) assay versus [^3H]75, PiD brain tissue homogenate; type: binding; conditions: PiD brain tissue homogenate; radioligand [^3H]75; n = 3, mean ± SD
T5 construct: or only 3R-tau aggregates (PiD middle frontal gyrus); from tissue; host or cells: post-mortem human PiD brain, middle frontal gyrus homogenate
T5 sequence (P10636 1-410 isoform P10636-5): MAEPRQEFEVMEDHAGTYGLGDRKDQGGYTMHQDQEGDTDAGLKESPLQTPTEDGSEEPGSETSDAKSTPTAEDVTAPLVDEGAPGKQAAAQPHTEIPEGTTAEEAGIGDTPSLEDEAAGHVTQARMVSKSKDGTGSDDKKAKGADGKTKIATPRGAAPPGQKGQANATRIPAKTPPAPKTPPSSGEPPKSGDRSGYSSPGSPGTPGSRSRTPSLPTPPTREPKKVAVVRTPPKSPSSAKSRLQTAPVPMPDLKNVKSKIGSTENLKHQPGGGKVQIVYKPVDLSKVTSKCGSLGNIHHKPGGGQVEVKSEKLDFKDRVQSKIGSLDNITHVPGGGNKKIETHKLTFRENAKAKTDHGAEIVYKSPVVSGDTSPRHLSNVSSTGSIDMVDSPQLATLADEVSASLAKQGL

[13] = biological target: T2, aggregated tau (4R-tau) in CBD brain tissue homogenates; experiment: In vitro competition (Ki) assay versus [^3H]75, CBD brain tissue homogenate; type: binding; parameters: from tissue; host or cells: post-mortem human CBD brain, middle frontal gyrus homogenate; conditions: CBD brain tissue homogenate; radioligand [^3H]75; n = 3, mean ± SD
[14] = biological target: T3, aggregated tau (4R-tau) in PSP brain tissue homogenates; parameters: method as in earlier work; conditions: PSP brain tissue homogenate; radioligand [^3H]3; read-out: Ki versus [^3H]3, PSP tissue; cited from earlier work
[15] = biological target: T4, aggregated tau (mixed 3R/4R-tau) in AD brain tissue homogenates; experiment: In vitro competition (Ki) assay versus [^3H]75, AD brain tissue homogenate; type: binding; conditions: AD brain tissue homogenate; radioligand [^3H]75; n = 3, mean ± SD
Target sequence in this assay (P10636 623-695 limits assumed): as the sequence (P10636 623-695 limits assumed) above

[16] = biological target: T3, aggregated tau (4R-tau) in PSP brain tissue homogenates; experiment: In vitro competition (Ki) assay versus [^3H]7, PSP brain tissue homogenate; type: binding; conditions: radioligand [^3H]7 ∼1 nM
[17] = biological target: T2, aggregated tau (4R-tau) in CBD brain tissue homogenates; parameters: from tissue; host or cells: post-mortem human CBD brain, middle frontal gyrus homogenate; method as in earlier work; conditions: CBD brain tissue homogenate; radioligand [^3H]3; read-out: Ki versus [^3H]3, CBD tissue; cited from earlier work
M2 (h) = M2 (h) (Homo sapiens, UniProt P08172); conditions: Specific binding; reference compound
[18] = biological target: T2, aggregated tau (4R-tau) in CBD brain tissue homogenates; experiment: In vitro competition (Ki) assay versus [^3H]3, CBD brain tissue homogenate; type: binding; parameters: from tissue; host or cells: post-mortem human CBD brain, middle frontal gyrus homogenate; conditions: radioligand [^3H]3 ∼1 nM
[19] = biological target: T4, aggregated tau (mixed 3R/4R-tau) in AD brain tissue homogenates; experiment: In vitro competition (Ki) assay versus [^3H]3, AD brain tissue homogenate; type: binding; conditions: radioligand [^3H]3 ∼1 nM
Target sequence in this assay (P10636 623-695 limits assumed): as above

[20] = biological target: T2, aggregated tau (4R-tau) in CBD brain tissue homogenates; experiment: biochemical
[21] = biological target: T3, aggregated tau (4R-tau) in PSP brain tissue homogenates; experiment: In vitro competition (Ki) assay versus [^3H]3, PSP brain tissue homogenate; type: binding; conditions: radioligand [^3H]3 ∼1 nM

Compound: CC(C)(C)[C@]1(O)CCN2C[C@H]3c4ccccc4CCc4cccc(c43)[C@@H]2C1 [butaclamol]
- nH (D2L (h)): 0.9951

Compound: Cc1nc2c([nH]1)c(=O)n(C)c(=O)n2Cc1ccco1 [Furafylline]
- nH (CYP1A2): 0.9709

Compound: N=C(N)N/N=C/c1c(Cl)cccc1Cl [guanabenz]
- nH, Specific binding [1]: 1.024

Compound: CCOC(=O)C1=C(C)NC(C)=C(C(=O)OC)C1c1cccc([N+](=O)[O-])c1 (stereo not drawn) [nitrendipine]
- nH, Specific binding [2]: 1.077

Compound: CN1CCc2cc(Cl)c(O)cc2[C@@H](c2ccccc2)C1 [SCH 23390]
- nH (D1 (h)): 1.03

Compound: C=C[C@H]1C[N@@]2CC[C@H]1C[C@@H]2[C@@H](O)c1ccnc2ccc(OC)cc12 [Quinidine]
- nH (CYP2D6): 0.9681

Compound: COc1ccc2[nH]cc(CCNC(C)=O)c2c1 [melatonin]
- nH, Specific binding (MT1 (ML1A) (h)): 1.177

Compound: CCN(CC)CC#CCOC(=O)C(O)(c1ccccc1)C1CCCCC1 (stereo not drawn) [Oxybutynin]
- nH (CYP2C19): 0.7474

Compound: C[N+]1(C)CCC(OC(=O)C(c2ccccc2)c2ccccc2)CC1.[I-] [Compound 4-DAMP]
- nH (M4 (h)): 1.959
- nH (M5 (h)): 1.178
- IC50 (M5 (h); read-out: Concurrent IC50): 2.35 nM
- Ki (M5 (h); read-out: Concurrent Ki): 1.17 nM
- nH (M3 (h)): 1.577

Compound: Ro 41-0960
- IC50 [3]: 23 nM

Compound: COc1cc(C(=O)OCCCN2CCCN(CCCOC(=O)c3cc(OC)c(OC)c(OC)c3)CC2)cc(OC)c1OC [Dilazep]
- nH, Specific binding [4]: 1.337

Compound: C[C@@H]1C[C@H]2[C@@H]3CCC4=CC(=O)C=C[C@]4(C)[C@@]3(F)[C@@H](O)C[C@]2(C)[C@@]1(O)C(=O)CO [dexamethasone]
- nH (GR (h)): 1.051

Compound: C[C@@H]1O[C@@H](O[C@H]2C[C@@H](O)[C@]3(CO)[C@H]4[C@H](O)C[C@]5(C)[C@@H](C6=CC(=O)OC6)CC[C@]5(O)[C@@H]4CC[C@]3(O)C2)[C@H](O)[C@H](O)[C@H]1O [ouabain]
- IC50 (ATPase (Na+/K+)): 569 nM

- Ki [5]: 11 ± 1.3 nM
- Ki [6]: 11 nM
- Ki [7]: ~15 nM and 15 nM
- Ki [9]: 8.4 nM
- Ki [10]: 7.7 ± 0.6 nM
- Ki [11]: 8.5 ± 1.2 nM
- Ki [12]: ~24 nM and 24 nM
- Ki [13]: 16 nM
- Ki [15]: ~15 nM and 15 nM
- Ki [16]: 13 nM
Compound: Fc1ccc2cc(-c3cnc(N4CCOCC4)nc3)[nH]c2c1 [Compound 8]
- Ki [8]: 22 nM
- Ki [14]: 18 nM
- Ki [17]: 19 nM

- nH (M2 (h)): 1.382
Compound: COc1ccccc1CNCCCCCCNCCCCCCCCNCCCCCCNCc1ccccc1OC [methoctramine]

- Ki [18]: 40 nM
- Ki [9]: 11 nM
- Ki [10]: 10 nM
- Ki [11]: 11 nM
- Ki [19]: 33 nM
- Ki [20]: 15 nM
- Ki [16]: 8.9 nM
- Ki [21]: 37 nM
Compound: O[C@H]1CCN(c2ccc(-c3cc4ccc(F)cc4[nH]3)cn2)C1 [Compound 9, reference compound]
